From patent publication US20080299041A1, “HETEROCYCLIC INDENE DERIVATIVES AND THEIR RADIOISOTOPE LABELED COMPOUNDS FOR IMAGING BETA-AMYLOID DEPOSITION” (SEOUL NATIONAL UNIVERSITY INDUSTRY FOUNDATION, priority 2007, published 2008)

Tests used:
Aβ1-40 aggregates = Aβ1-40 aggregates (Homo sapiens, UniProt P05067); assay: In vitro competitive binding assay with 3′-[^125I]I-BTA-1 as radioligand, Aβ1-40 aggregates; conditions: Aβ aggregates 20 nM, 3 h at room temperature, pH 7.2
Procedure: (§1) Affinity to β-amyloid can be measured by incubation with β-amyloid precipitate and count the bound form after separation by centrifugation. Kd or Ki values are obtained either by saturation binding assay or competition assay.
(§2) Aβ1-40 or Aβ1-42 peptides were incubated in phosphate buffer (pH=7.2) overnight to prepare precipitates as reported in literatures, and then aliquoted and stored at −70[…]. (Klunk, W. E.; Wang, Y.; Huang, G-F.; Debnath, M. L.; Holt D. P.; Mathis, C. A. Uncharged thioflavin-T derivatives bind to amyloid-beta protein with high affinity and readily enter the brain. Life Sci. 2001, 69(13), […]; Zhuang, Z.-P.; Kung, M.-P.; Wilson, A.; Lee, C.-W.; Plossl, K.; Hou, C.; Holtzman, D. M.; Kung, H. F.; Structure-activity relationship of imidazo[1,2-a]pyridines as ligands for detecting β-amyloid plaques in the brain. J. Med. Chem. 2003; 46(2), 237-243)
(§3) The binding affinities of benzothiophene derivatives to Aβ aggregates were evaluated by competitive binding assays using 3′-[^125I]I-BTA-1 as a radioligand. […] Nonspecific binding was determined by incubation in the presence of 10 μM thioflavin-T. The reaction mixtures were filtered through Whatman GF/B glass filters and washed twice with 3 mL of 10% ethanol aliquots. Filters were counted using a Nat well counter. Ki values of the benzothiophene derivatives were then calculated from the results and represented on Table 1.

Aβ1-42 aggregates = Aβ1-42 aggregates (Homo sapiens, UniProt P05067); assay: In vitro competitive binding assay with 3′-[^125I]I-BTA-1 as radioligand, Aβ1-42 aggregates; conditions: Aβ aggregates 20 nM, 3 h at room temperature, pH 7.2
Aβ1-42 aggregates, sequence (P05067 672-713 limits assumed): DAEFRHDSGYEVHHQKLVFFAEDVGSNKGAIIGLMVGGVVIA
Procedure: as §1, §2, §3

[1] = Biodistribution experiment in mice after tail vein injection of ^18F labeled compound; format: in vivo, Male ICR mice
Procedure: The penetration of BBB can be estimated by animal experiment. The radiolabeled compounds are intravenously injected to mice, and then the brains are obtained at 2 min, 30 min, and 60 min. The radioactivities of the brain are expressed as the percentage of injected dose per brain weight (gram).
FIG. 2. Biodistribution graph observed in each organ after injection of 2-(4′-[^18F]fluoromethyl)phenyl-1,3-benzothiazole through the mice tail veins. The mice were sacrificed at 2 min, 30 min and 60 min after injection, respectively, and then organs were taken out. The organs were weighed and their radioactivities were measured. The radioactivity distribution in each organ was calculated as the percentage of injected dose per organ weight (gram).
Male ICR mice (n=4/group, 29.9±1.6 g) were injected with 148 kBq/0.1 mL of 2-(4′-[^18F]fluoromethyl)phenyl-1,3-benzothiazole through the tail vein. These injected mice were sacrificed by decapitation 2, 30 and 60 min post-injection. Blood, muscle, lung, liver, spleen, stomach, intestine, brain, and bone were rapidly separated, weighed and counted using a NaI well counter. Results are expressed as percentages of the injected dose per gram of tissue (% ID/g), and represented in FIG. 2. Brain uptake at […] was 5.62±0.28% ID/g and ratio to 30 min was 3.75±0.97, which represent rapid uptake and wash out to and from normal brain.
A comparative mice biodistribution study using 2-(4′-O-(2′-[^18F]Fluoroethyl)hydroxyphenyl)benzothiophene and 2-(4′-O-(3′-[^18F]Fluoropropyl)hydroxyphenyl) benzothiophene was performed according to the same procedure with above Experiment 2.

Aβ1-40 aggregates, sequence (P05067 672-711 limits assumed): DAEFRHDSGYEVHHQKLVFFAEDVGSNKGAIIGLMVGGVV

Q: For “2-(4′-fluoromethyl)phenyl-1,3-benzothiazole”, which Ki (Aβ1-40 aggregates) is on record?
A: 26.9 ± 5.04 nM

Q: And the Ki (Aβ1-42 aggregates)?
A: 28.1 ± 4.44 nM

Q: With `[18F]CCOc1ccc(-c2cc3ccccc3s2)cc1` [2-(4′-O-(2′-[^18F]Fluoroethyl)hydroxyphenyl)benzothiophene] as the compound, how does the Blood uptake ([1]; 2 min post-injection) read?
A: 3.5 ± 0.2 % ID/g

Q: And the Bone uptake ([1]; 2 min post-injection)?
A: 2.5 ± 0.2 % ID/g

Q: What about the Brain uptake ([1]; 2 min post-injection) of the same compound?
A: 5.2 ± 0.4 % ID/g

Q: What about the Fat uptake ([1]; 2 min post-injection) of the same compound?
A: 0.9 ± 0.3 % ID/g

Q: What about the Heart uptake ([1]; 2 min post-injection) of the same compound?
A: 8.8 ± 1.0 % ID/g

Q: What about the Intestine uptake ([1]; 2 min post-injection) of the same compound?
A: 2.7 ± 0.2 % ID/g

Q: And the Kidney uptake ([1]; 2 min post-injection)?
A: 11.8 ± 0.9 % ID/g

Q: What about the Liver uptake ([1]; 2 min post-injection) of the same compound?
A: 9.3 ± 1.5 % ID/g

Q: And the Lung uptake ([1]; 2 min post-injection)?
A: 9.3 ± 1.1 % ID/g

Q: And the Muscle uptake ([1]; 2 min post-injection)?
A: 2.9 ± 0.3 % ID/g

Q: And the Spleen uptake ([1]; 2 min post-injection)?
A: 4.4 ± 0.8 % ID/g

Q: What about the Stomach uptake ([1]; 2 min post-injection) of the same compound?
A: 2.1 ± 0.7 % ID/g

Q: What about the Blood uptake ([1]; 30 min post-injection) of the same compound?
A: 3.8 ± 0.4 % ID/g

Q: What about the Bone uptake ([1]; 30 min post-injection) of the same compound?
A: 3.3 ± 0.2 % ID/g

Q: What about the Brain uptake ([1]; 30 min post-injection) of the same compound?
A: 5.2 ± 0.5 % ID/g

Q: And the Fat uptake ([1]; 30 min post-injection)?
A: 2.1 ± 1.0 % ID/g

Q: What about the Heart uptake ([1]; 30 min post-injection) of the same compound?
A: 3.2 ± 0.2 % ID/g

Q: And the Intestine uptake ([1]; 30 min post-injection)?
A: 7.2 ± 0.6 % ID/g

Q: What about the Kidney uptake ([1]; 30 min post-injection) of the same compound?
A: 4.1 ± 0.7 % ID/g

Q: And the Liver uptake ([1]; 30 min post-injection)?
A: 3.9 ± 0.7 % ID/g

Q: And the Lung uptake ([1]; 30 min post-injection)?
A: 3.4 ± 0.6 % ID/g

Q: And the Muscle uptake ([1]; 30 min post-injection)?
A: 2.7 ± 0.3 % ID/g

Q: And the Spleen uptake ([1]; 30 min post-injection)?
A: 2.7 ± 0.5 % ID/g

Q: What about the Stomach uptake ([1]; 30 min post-injection) of the same compound?
A: 2.5 ± 0.3 % ID/g

Q: Which Blood uptake ([1]; 2 min post-injection) does the source give for `[18F]CCCOc1ccc(-c2cc3ccccc3s2)cc1` [2-(4′-O-(3′-[^18F]Fluoropropyl)hydroxyphenyl)benzothiophene] here?
A: 3.3 ± 0.5 % ID/g

Q: What about the Bone uptake ([1]; 2 min post-injection) of the same compound?
A: 2.2 ± 0.2 % ID/g

Q: And the Brain uptake ([1]; 2 min post-injection)?
A: 3.3 ± 0.2 % ID/g

Q: And the Fat uptake ([1]; 2 min post-injection)?
A: 0.7 ± 0.1 % ID/g

Q: What about the Heart uptake ([1]; 2 min post-injection) of the same compound?
A: 11.9 ± 0.6 % ID/g

Q: And the Intestine uptake ([1]; 2 min post-injection)?
A: 2.4 ± 0.2 % ID/g

Q: What about the Kidney uptake ([1]; 2 min post-injection) of the same compound?
A: 13.5 ± 1.2 % ID/g

Q: What about the Liver uptake ([1]; 2 min post-injection) of the same compound?
A: 17.0 ± 0.6 % ID/g

Q: And the Lung uptake ([1]; 2 min post-injection)?
A: 10.2 ± 1.4 % ID/g

Q: What about the Muscle uptake ([1]; 2 min post-injection) of the same compound?
A: 3.0 ± 0.2 % ID/g

Q: What about the Spleen uptake ([1]; 2 min post-injection) of the same compound?
A: 4.1 ± 1.2 % ID/g

Q: And the Stomach uptake ([1]; 2 min post-injection)?
A: 1.8 ± 0.5 % ID/g

Q: What about the Blood uptake ([1]; 30 min post-injection) of the same compound?
A: 1.4 ± 0.1 % ID/g

Q: And the Bone uptake ([1]; 30 min post-injection)?
A: 10.7 ± 0.6 % ID/g

Q: And the Brain uptake ([1]; 30 min post-injection)?
A: 4.0 ± 0.4 % ID/g

Q: And the Fat uptake ([1]; 30 min post-injection)?
A: 1.9 ± 0.4 % ID/g

Q: What about the Heart uptake ([1]; 30 min post-injection) of the same compound?
A: 1.8 ± 0.3 % ID/g

Q: What about the Intestine uptake ([1]; 30 min post-injection) of the same compound?
A: 5.5 ± 0.4 % ID/g

Q: What about the Kidney uptake ([1]; 30 min post-injection) of the same compound?
A: 4.4 ± 0.4 % ID/g

Q: And the Liver uptake ([1]; 30 min post-injection)?
A: 6.1 ± 0.6 % ID/g

Q: What about the Lung uptake ([1]; 30 min post-injection) of the same compound?
A: 2.2 ± 0.6 % ID/g

Q: And the Muscle uptake ([1]; 30 min post-injection)?
A: 1.6 ± 0.1 % ID/g

Q: What about the Spleen uptake ([1]; 30 min post-injection) of the same compound?
A: 1.5 ± 0.2 % ID/g

Q: What about the Stomach uptake ([1]; 30 min post-injection) of the same compound?
A: 1.0 ± 0.4 % ID/g

Q: With `[18F]Cc1ccc(-c2nc3ccccc3s2)cc1` [2-(4′-[^18F]fluoromethyl)phenyl-1,3-benzothiazole] as the compound, how does the “Bone uptake (in words; in vivo defluorination)” value ([1]; tail vein) read?
A: High bone uptake

Q: And the Brain uptake ([1]; tail vein, "at min" post-injection (time figure missing))?
A: 5.62±0.28 % ID/g

Q: What about the “Brain uptake ratio to 30 min” value ([1]; tail vein, early brain uptake / 30 min) of the same compound?
A: 3.75±0.97

Q: Which results are given for `FCc1ccc(-c2nc3ccccc3o2)cc1` [Benzoxaxole, 2-(4′-fluoromethyl)phenyl-1,3-benzoxazole]?
A: Ki (Aβ1-40 aggregates): 75.7 ± 43.2 nM; Ki (Aβ1-42 aggregates): 59.9 ± 5.03 nM
